The values below come from US20040072825A1, “2-(2-(4-((2r)-2-methyl-3-(10h-phenothiazin-10-yl)propyl)-1-piperazinyl)-ethoxy) ethanol, process for the preparation thereof, pharmaceutical compositions containing said compound and therapeutic uses thereof” (priority 2000, published 2004).

Each structure is given as a SMILES string. Marks after values point to notes of the source that are not given here.

The term IC50 denotes the concentration at which inhibition is half-maximal. A word on the inhibition: it is the drop in the measured response relative to a control, in per cent.

Series [1] deals with vomiting induced by cisplatin in ferrets. Kind of series: Cisplatin-induced emesis in ferrets, single oral administration. Type of series: in vivo, ferret. The note with it: for Proportion of animal vomiting: 60 min before cisplatin i.v., 5 h observation. The protocol:
Cisplatin-induced emesis in ferrets is largely considered as the most suitable animal model for the study of drug activity against chemotherapy-induced vomiting in man (Georges L. King. Animal models in the study of vomiting. Can. J. Physiol. Pharmacol. 68, 260-268, 1988).
Three compounds, dixyrazine dihydrochloride and its (R) and (S) enantiomers were tested for their activity against vomiting induced by cisplatin in ferrets following single oral administration.
The study involved 14 groups of 8 male ferrets weighing between 0.93 kg and 1.45 kg purchased from the company MARSHALL FARMS (NEW YORK, U.S.). Groups were defined as follows: […]
group 1: control group dosed with the vehicle of test substances (sterile water),
group 2: method-control group dosed with a method-control substance, granisetron ([…], RBI®), at a dose of 0.3 mg/kg,
group 3 to 6: group dosed with diyyrazine dihydrochloride at 4 increasing doses of 7.5, 15, 30 and 60 mg/kg,
group 7 to 10: group dosed with the (R) enantiomer of dixyrazine dihydrochloride at 4 increasing doses of 7.5, 15, 30 and 60 mg/kg,
group 11 to 14: group dosed with the (S) enantiomer of drazine dihydrochloride at 4 increasing doses of 7.5, 15, 30 and 60 mg/kg.
On the day prior to the test, animals were fasted and allowed access only to water.
On the morning of the day of the study, free access to food was allowed for 30 minutes. Subsequently, animals were again put on to a water-only fast for 30 minutes before administration of the three compounds, the vehicle or the method-control substance which were administrated orally in a volume of 5 ml/kg.
Cisplatin was administrated by the intravenous route at a dose of 115 mg/m^2 and in a volume of 115 ml/m^2 (i.e. approximately at 10 mg/kg), 60 minutes after treatment. […] Emesis was characterised by abdominal contractions, which were associated with expulsion or attempted expulsion of stomach contents.
The time to onset of emesis was noted. The number of episodes of vomiting and the number of abdominal retches associated with episodes of emesis were also noted.

For series [2], the target named is T1, D4.4 dopaminergic receptor (Homo sapiens, UniProt P21917).
T1 construct: expressed in transfected cells; host or cells: CHO
T1 sequence (P21917 1-419): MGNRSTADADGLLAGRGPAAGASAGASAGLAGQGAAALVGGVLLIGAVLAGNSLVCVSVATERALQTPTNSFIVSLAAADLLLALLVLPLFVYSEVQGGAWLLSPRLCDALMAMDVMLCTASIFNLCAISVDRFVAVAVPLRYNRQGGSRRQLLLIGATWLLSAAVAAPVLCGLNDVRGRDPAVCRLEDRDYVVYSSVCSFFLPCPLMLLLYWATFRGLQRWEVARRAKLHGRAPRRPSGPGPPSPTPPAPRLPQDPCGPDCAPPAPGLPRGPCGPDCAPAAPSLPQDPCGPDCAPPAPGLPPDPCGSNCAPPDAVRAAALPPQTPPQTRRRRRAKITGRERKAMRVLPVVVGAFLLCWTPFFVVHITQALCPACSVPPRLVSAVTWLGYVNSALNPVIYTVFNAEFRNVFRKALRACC
Kind of series: Radioligand binding, D4.4 receptor (CHO cell culture). The note with it: for IC50: D4.4, competitive binding, read-out: Affinity pIC50 (-log IC50) (converted). The protocol: (§1) The test substances, biological materials and experimental protocols used in the study are described in Moguilevsky N. et al. (1994) Eur. J. […] List S. J. (1981) Proc. Natl. Acad. Sci.78:2620-2624; MacKenzie R. G. et al. (1994) Eur. J. Pharmacol. 266:79-85; Van Tol et al., (1992) Nature, 358:149-152. […] Filtermat A, Walac), then washed with cold buffer using a filtration unit ‘Cell Harvester’ (Brandel, Packard or Tomtec). The bound radioactivity is measured using a scintillation liquid (Formula 989 or Microscint 0, Packard) or solid (Meltilex B/HS, Wallac), and a scintillation counter (LS 6000, Beckman; Topcount, Packard; Betaplate, Wallac). […] Each experiment was performed in duplicate (n=2). In parallel, a positive control (concentration of reference substance causing 50% inhibition of radioligand specific binding) is tested to validate the assay. For competition experiments, membranes are incubated in the buffer containing the radioligand and increasing concentrations of unlabeled test substances. Each binding assay is validated with a reference compound tested in parallel. […] where BO and BI represent the total binding in the absence and presence of the unlabelled drug (in dpm/assay) and NSB is the amount of non specific binding (in dpm/assay). Analysis of raw data and pIC50 calculation is performed by computerized non-linear curve fitting methods using a set of equations describing competitive interactions between labelled and unlabeled ligands which obey the law of mass action. IC50 represents the concentration of the test substance inhibiting 50% of the specific binding of the radioligand. It is determined in competitive binding experiments by measuring the binding of a single concentration of a radioactive ligand at equilibrium with various concentrations of the unlabeled test substance. pIC50=−log IC50

The target in series [3] is T2, human D3 dopaminergic receptor (Homo sapiens, UniProt P35462).
T2 construct: expressed in transfected cells; host or cells: CHO
T2 sequence (P35462 whole entry): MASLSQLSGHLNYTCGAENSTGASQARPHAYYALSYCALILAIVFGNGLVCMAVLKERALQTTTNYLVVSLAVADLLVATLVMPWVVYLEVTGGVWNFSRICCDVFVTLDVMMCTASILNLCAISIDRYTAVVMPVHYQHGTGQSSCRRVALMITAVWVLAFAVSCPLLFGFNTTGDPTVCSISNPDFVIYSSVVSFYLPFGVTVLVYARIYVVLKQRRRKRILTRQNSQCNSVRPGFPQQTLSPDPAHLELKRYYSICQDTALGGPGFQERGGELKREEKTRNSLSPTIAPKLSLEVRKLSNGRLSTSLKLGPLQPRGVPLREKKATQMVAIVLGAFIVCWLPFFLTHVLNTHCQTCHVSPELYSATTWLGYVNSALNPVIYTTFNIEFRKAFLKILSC
As to the kind of experiment: Radioligand binding, human D3 receptor (CHO cell culture). The note with it: for IC50: D3, competitive binding, read-out: Affinity pIC50 (-log IC50) (converted). The procedure:
as §1

For a further series, the target named is D2 dopaminergic receptor (Rattus norvegicus, UniProt P61169). As to the kind of experiment: Radioligand binding, D2 receptor (rat striatum membranes). The note with it: for IC50: D2, competitive binding, read-out: Affinity pIC50 (-log IC50) (converted). The procedure:
as §1

Series [4] has as its target human H1 histaminic receptor (Homo sapiens, UniProt P35367). As to the kind of experiment: Radioligand binding, human H1 receptor (CHO cell culture). The note with it: for IC50: H1, competitive binding, read-out: Affinity pIC50 (-log IC50) (converted). The protocol: as §1
Series [5] deals with T3, 5-HT2 serotonergic receptor (Rattus norvegicus, UniProt P14842).
T3 construct: the rat cerebral cortex (5-HT2 receptor); from tissue; host or cells: rat cerebral cortex
T3 sequence (P14842 whole entry): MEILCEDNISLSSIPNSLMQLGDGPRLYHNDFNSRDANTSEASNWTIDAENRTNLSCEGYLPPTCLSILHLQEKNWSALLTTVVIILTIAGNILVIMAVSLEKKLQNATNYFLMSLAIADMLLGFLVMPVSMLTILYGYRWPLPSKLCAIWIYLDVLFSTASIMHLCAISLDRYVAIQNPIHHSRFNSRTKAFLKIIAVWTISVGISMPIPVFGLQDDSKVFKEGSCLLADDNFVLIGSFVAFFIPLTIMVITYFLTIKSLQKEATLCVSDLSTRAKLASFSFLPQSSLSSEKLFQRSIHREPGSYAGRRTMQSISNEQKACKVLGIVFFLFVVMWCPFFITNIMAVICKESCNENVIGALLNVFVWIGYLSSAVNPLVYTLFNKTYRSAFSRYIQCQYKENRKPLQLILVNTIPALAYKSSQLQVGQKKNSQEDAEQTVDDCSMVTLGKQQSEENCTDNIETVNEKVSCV
Kind of series: Radioligand binding, 5-HT2 receptor (rat cerebral cortex). Conditions: for IC50: 5-HT2, competitive binding, read-out: Affinity pIC50 (-log IC50) (converted). The procedure:
as §1

Setting [6] is: highest dose of 60 mg/kg p.o., dihydrochloride, 60 mg/kg.
[7] abbreviates: highest dose of 60 mg/kg p.o., listed as (R) enantiomer of dixyrazine dihydrochloride, dihydrochloride, 60 mg/kg.

D2 dopaminergic receptor, sequence (P61169 1-415 isoform P61169-2): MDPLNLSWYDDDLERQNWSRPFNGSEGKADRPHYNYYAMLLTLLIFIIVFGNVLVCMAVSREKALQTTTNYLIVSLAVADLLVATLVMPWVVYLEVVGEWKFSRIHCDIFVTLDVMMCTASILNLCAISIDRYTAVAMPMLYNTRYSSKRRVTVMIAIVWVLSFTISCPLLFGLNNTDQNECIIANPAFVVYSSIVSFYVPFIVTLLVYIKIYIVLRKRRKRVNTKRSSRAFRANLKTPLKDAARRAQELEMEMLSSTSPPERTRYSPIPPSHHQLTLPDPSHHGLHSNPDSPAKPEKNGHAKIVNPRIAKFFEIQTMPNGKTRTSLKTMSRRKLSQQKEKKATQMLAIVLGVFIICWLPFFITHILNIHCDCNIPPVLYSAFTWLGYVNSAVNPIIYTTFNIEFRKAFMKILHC
human H1 histaminic receptor, sequence (P35367 whole entry): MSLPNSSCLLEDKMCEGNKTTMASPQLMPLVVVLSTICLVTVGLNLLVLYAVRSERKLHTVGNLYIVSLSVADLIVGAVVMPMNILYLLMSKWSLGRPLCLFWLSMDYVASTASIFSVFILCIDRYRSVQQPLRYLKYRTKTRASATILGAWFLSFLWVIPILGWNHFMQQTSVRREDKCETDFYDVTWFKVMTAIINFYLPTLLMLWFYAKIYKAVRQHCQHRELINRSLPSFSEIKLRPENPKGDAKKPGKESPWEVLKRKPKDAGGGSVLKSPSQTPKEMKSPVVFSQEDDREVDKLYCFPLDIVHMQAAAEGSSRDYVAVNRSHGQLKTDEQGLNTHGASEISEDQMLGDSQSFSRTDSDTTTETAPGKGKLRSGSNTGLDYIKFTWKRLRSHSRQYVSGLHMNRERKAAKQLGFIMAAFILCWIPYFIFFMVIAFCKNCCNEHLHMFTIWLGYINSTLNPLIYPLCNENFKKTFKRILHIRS

In the case of `C[C@H](CN1CCN(CCOCCO)CC1)CN1c2ccccc2Sc2ccccc21.Cl.Cl` [(R) enantiomer dihydrochloride, 2-(2-{4-[(2R)-2-methyl-3-(10H-phenothiazin-10-yl)propyl]-1-piperazinyl}ethoxy)ethanol dihydrochloride], the “Time to onset of emesis” value in series [1] (7.5 mg/kg p.o.) came out at 81 min; in series [1] (15 mg/kg p.o.) it was 80 min; in series [1] (30 mg/kg p.o.) it was 81 min; in series [1] (60 mg/kg p.o.), 134 min. Moreover, the “Proportion of animal vomiting” value is 5/8 in series [1] (7.5 mg/kg p.o.), 8/8 in series [1] (15 mg/kg p.o.), 5/8 in series [1] (30 mg/kg p.o.) and 4/8* in series [1] (60 mg/kg p.o.). In series [1] (60 mg/kg p.o.), the “suppression of vomiting, number of animals” value is given as 4 animals out of 8. The “antiemetic effect (in words)” value in series [1] (setting [6]) was “induced an antiemetic effect”; in series [1] (setting [7]), “significantly reduce cisplatin-induced emesis”. In addition, the results for the “effect on time to onset of emesis (in words)” value (“effect on time to onset” for short) in series [1] (setting [6]) and in series [1] (setting [7]) were “a tendency to increase the time to onset of emesis” and “clear tendency to delay the latency to onset of the first vomiting episode”, respectively. Moreover, the half-inhibitory concentration (IC50) was 0.158 µM in series [2]; 50.1 nM in series [3]; 2.51 nM on D2 dopaminergic receptor; 0.2 nM in series [4]; 3.98 nM in series [5]. Besides, the Stereoselectivity ratio in series [2] (D4.4, IC50 of (S) enantiomer/IC50 of (R) enantiomer) came to 158; in series [3] (D3, IC50 of (S) enantiomer/IC50 of (R) enantiomer), 63; on D2 dopaminergic receptor (D2, IC50 of (S) enantiomer/IC50 of (R) enantiomer) it was 316; in series [4] (H1, IC50 of (S) enantiomer/IC50 of (R) enantiomer), 25; in series [5] (5-HT2, IC50 of (S) enantiomer/IC50 of (R) enantiomer), 16.
For the molecule `C[C@@H](CN1CCN(CCOCCO)CC1)CN1c2ccccc2Sc2ccccc21` (single isomer, unassigned) [(S) enantiomer (free base)], the “percent inhibition of control specific binding” value is given as “— (Symbol-represents an inhibition<10%)” in series [2] (D4.4, 0.2 μM, mean of duplicate); 27% in series [2] (D4.4, 10 μM, mean of duplicate); “— (Symbol-represents an inhibition<10%)” in series [3] (D3, 0.2 μM, mean of duplicate); 74% in series [3] (D3, 10 μM, mean of duplicate); 89% on D2 dopaminergic receptor (D2, 10 μM, mean of duplicate); 101% in series [4] (H1, 10 μM, mean of duplicate). Also, in series [5] (5-HT2, 10 μM, mean of duplicate), the “percent inhibition of control specific binding” value is 101%.
For the molecule `C[C@H](CN1CCN(CCOCCO)CC1)CN1c2ccccc2Sc2ccccc21` [(R) enantiomer (free base), 2-(2-{4-[(2R)-2-methyl-3-(10H-phenothiazin-10-yl)propyl]-1-piperazinyl}ethoxy)ethanol], the inhibition at 0.1 µM was 40% in series [2] (D4.4, 0.1 μM, mean of duplicate, read-out: percent inhibition of control specific binding) and 81% in series [3] (D3, 0.1 μM, mean of duplicate, read-out: percent inhibition of control specific binding). For the same molecule, the inhibition at 10 µM in series [2] (D4.4, 10 μM, mean of duplicate, read-out: percent inhibition of control specific binding) turned out to be 99%; in series [3] (D3, 10 μM, mean of duplicate, read-out: percent inhibition of control specific binding), 100%; at D2 dopaminergic receptor (D2, 10 μM, mean of duplicate, read-out: percent inhibition of control specific binding), 100%; in series [4] (H1, 10 μM, mean of duplicate, read-out: percent inhibition of control specific binding) it was 101%; in series [5] (read-out: percent inhibition of control specific binding, 5-HT2, 10 μM, mean of duplicate) it was 102%.
On to `C[C@@H](CN1CCN(CCOCCO)CC1)CN1c2ccccc2Sc2ccccc21.Cl.Cl` [(S) enantiomer dihydrochloride, 2-(2-{4-[(2S)-2-Methyl-3-(10H-phenothiazin-10-yl)propyl]-1-piperazinyl}ethoxy)ethanol dihydrochloride], for which the “Time to onset of emesis” value in series [1] (7.5 mg/kg p.o.) is 87 min; in series [1] (15 mg/kg p.o.) it was 87 min; in series [1] (30 mg/kg p.o.), 82 min; in series [1] (60 mg/kg p.o.), 68* minutes. In addition, the “Proportion of animal vomiting” value in series [1] (7.5 mg/kg p.o.) was 8/8; in series [1] (15 mg/kg p.o.), 8/8; in series [1] (30 mg/kg p.o.), 7/8; in series [1] (60 mg/kg p.o.), 7/8. Moreover, the “pro-emetic properties (in words)” value in series [1] (cisplatin-treated ferrets) was “undesirable pro-emetic properties”. In series [1] (highest dose of 60 mg/kg p.o.), the “effect on time to onset” value is recorded as “statistically significant decrease in the time of onset of emesis”. For the same molecule, the “antiemetic effect (in words)” value in series [1] (whatever the dose tested (7.5 to 60 mg/kg p.o.), dihydrochloride) was “no antiemetic effect”; in series [1] (whatever the dose tested (7.5 to 60 mg/kg p.o.), listed as (S) enantiomer of dixyrazine dihydrochloride, dihydrochloride), “inactive in preventing cisplatin-induced emesis”. For the same molecule, the half-maximal inhibitory concentration (IC50) in series [2] is 25.1 µM; in series [3], 3160 nM; on D2 dopaminergic receptor, 794 nM; in series [4], 5.01 nM; in series [5], 63.1 nM.
Turning to `CN1C2CCCC1CC(NC(=O)c1nn(C)c3ccccc13)C2` (centres unmarked) [Granisetron, reference compound], in series [1] (0.3 mg/kg p.o.), the “Time to onset of emesis” value is given as 160* minutes, the “antiemetic effect (in words)” value is “significant antiemetic effect” and the “Proportion of animal vomiting” value is 3/8*. Moreover, in series [1] (0.3 mg/kg p.o., 1 hour before cisplatin i.v.), the “suppression of vomiting, number of animals” value was 5 animals out of 8. Moreover, the “effect on time to onset” value in series [1] (0.3 mg/kg p.o., the 3 animals that still vomited) is recorded as “increase in the time to onset of emesis”.
